The source of these data is patent publication US9409952B2, “Peptide-compound cyclization method” (Chugai Seiyaku Kabushiki Kaisha, priority 2011, dated 2016).

Structures are written as SMILES. Positions of bridges follow the written chain, without caps; N, C: chain ends. Non-standard residues stand in square brackets, D forms with d. Residues, ends and D or L forms follow the SMILES beside them. *: point of attachment. NMeI = CC[C@H](C)[C@H](NC)C(=O)O; NMeL = CN[C@@H](CC(C)C)C(=O)O; NMeV = CN[C@H](C(=O)O)C(C)C; NMeA = CN[C@@H](C)C(=O)O; Piperidide = C1CCN(*)CC1; Aze = O=C(O)[C@@H]1CCN1

One data set in a line: Metabolic stability in human hepatic microsome. The format is in vitro ADME. As to conditions: human, microsomes, pH 7.4, CL NADPH(+).
Compound `CC[C@H](C)[C@H](NC(=O)[C@H](CC(C)C)N(C)C(=O)[C@@H]1CC(=O)N[C@@H](C)C(=O)N[C@@H](Cc2ccccc2)C(=O)N2CCC[C@H]2C(=O)N[C@@H](CC(C)C)C(=O)N[C@@H]([C@@H](C)O)C(=O)N[C@@H](CC(C)C)C(=O)N[C@@H](Cc2ccccc2)C(=O)N(C)[C@@H](C(C)C)C(=O)N[C@@H](C)C(=O)N1)C(=O)N1CCCCC1` [DP-43] (AFPLTLF[NMeV]AD[NMeL]I-Piperidide; lactam N-10) showed a microsomal CLint at 1 uM of 44 µL/min/mg.

Still in this data set, the particulars now being: microsomes, pH 7.4; human hepatic microsome, NADPH(+); read-out: CL NADPH(+).
For the compound `C=C1CCC(=O)N(C)[C@@H](Cc2ccccc2)C(=O)N(C)CC(=O)N(C)[C@@H](CC(C)C)C(=O)N[C@@H]([C@@H](C)O)C(=O)N(C)[C@@H](C)C(=O)N(C)[C@@H](CC(C)C)C(=O)N(C)[C@@H]([C@@H](C)CC)C(=O)N[C@@H](COC(C)(C)C)C(=O)N[C@H](C(=O)N2CCCCC2)Cc2ccc1cc2` [DP-830], the microsomal CLint at 1 uM was found to be 321 µL/min/mg.

As for `C=C1CCC(=O)N[C@@H](CC(C)C)C(=O)N[C@@H](C(C)C)C(=O)N(C)[C@@H](CC(C)C)C(=O)N[C@@H](Cc2ccccc2)C(=O)N(C)[C@@H](Cc2ccccc2)C(=O)N[C@@H]([C@@H](C)CC)C(=O)N(C)[C@@H](C)C(=O)N[C@@H](CC(C)C)C(=O)N[C@@H]([C@@H](C)O)C(=O)N[C@H](C(=O)N2CCCCC2)Cc2cccc1c2` [DP-890], the microsomal CLint at 1 uM came to 47 µL/min/mg.

Regarding `CC(C)C[C@@H]1NC(=O)[C@H](C)NC(=O)C[C@@H](C(=O)N2CCCCC2)NC(=O)[C@H](CC(C)C)N(C)C(=O)[C@H](C)NC(=O)[C@H](CC(C)C)NC(=O)[C@H](C(C)C)NC(=O)CNC(=O)[C@H](Cc2ccccc2)NC(=O)[C@H](C)N(C)C(=O)[C@H](CC(C)C)NC(=O)[C@H]([C@@H](C)O)NC(=O)[C@H](Cc2ccccc2)NC1=O` [DP-82] (ALFTL[NMeA]FGVLA[NMeL]D-Piperidide; lactam N-13), the microsomal CLint at 1 uM came out at 16 µL/min/mg.

Take `CC[C@H](C)[C@@H]1NC(=O)[C@H](C)N(C)C(=O)[C@H](Cc2ccccc2)NC(=O)[C@H](Cc2ccccc2)NC(=O)[C@H](CC(C)C)NC(=O)[C@H](C(C)C)N(C)C(=O)[C@H](CC(C)C)NC(=O)[C@H](C)NC(=O)[C@H](C)NC(=O)C[C@@H](C(=O)N2CCCCC2)NC(=O)CNC(=O)[C@H]([C@@H](C)O)NC1=O` [DP-84] (AAL[NMeV]LFF[NMeA]ITGD-Piperidide; lactam N-12): the microsomal CLint at 1 uM was determined as 21 µL/min/mg.

For the compound `CC[C@H](C)[C@H]1C(=O)NCC(=O)N2CC[C@H]2C(=O)N[C@@H]([C@@H](C)O)C(=O)N2CCC[C@H]2C(=O)N[C@@H](Cc2ccccc2)C(=O)N[C@H](C(=O)N2CCCCC2)CC(=O)N(C)[C@@H](C)C(=O)N[C@@H](Cc2ccccc2)C(=O)N(C)[C@@H](CC(C)C)C(=O)N[C@@H](CC(C)C)C(=O)N1C` [DP-556] ([NMeA]F[NMeL]L[NMeI]G[Aze]TPFD-Piperidide; lactam N-11), the microsomal CLint at 1 uM is 65 µL/min/mg.

Take `C=C1CCC(=O)N(C)[C@@H](Cc2ccccc2)C(=O)N(C)[C@@H](CC(C)C)C(=O)N[C@@H]([C@@H](C)CC)C(=O)N(C)[C@@H](C)C(=O)N(C)[C@@H](Cc2ccccc2)C(=O)N[C@@H]([C@@H](C)O)C(=O)N(C)[C@@H](C)C(=O)N(C)[C@@H](CC(C)C)C(=O)N[C@H](C(=O)N2CCCCC2)Cc2ccc1cc2` [DP-833]: the microsomal CLint at 1 uM stood at 427 µL/min/mg.

Take `C=C1CCC(=O)N[C@@H](C(C)C)C(=O)N(C)[C@@H](C)C(=O)N(C)[C@@H](CC(C)C)C(=O)N[C@@H](CC(C)C)C(=O)N[C@@H](Cc2ccccc2)C(=O)N(C)[C@@H](Cc2ccccc2)C(=O)N[C@@H]([C@@H](C)CC)C(=O)N2CCC[C@H]2C(=O)N[C@@H]([C@@H](C)O)C(=O)N(C)[C@@H](CC(C)C)C(=O)N[C@H](C(=O)N2CCCCC2)Cc2cccc1c2` [DP-884]: the microsomal CLint at 1 uM turned out to be 64 µL/min/mg.
